In brackets after ≈: the same amount, converted by molar mass.
Assay: Solubility of Lysine in 2-Methyl-1-propanol
Type: physicochemical
Details: organic solvent or mixture

With `NCCCC[C@H](N)C(=O)O` [Lysine] the solubility was about 26 mg/mL (≈ 178 mM).

— patent US12528760B2 (DOMPÉ FARMACEUTICI S.P.A., priority 2019, dated 2026)
